Where two headings read alike, the source gives them in different places. Numbered stars: 1 amine (or outer) side, 2 acyl side, 3 side chain; on linkers, the order of the positions; unused ones are H or OH. Bridge positions count the residues as written; N and C are the ends. Square brackets hold non-standard residues; d marks the D form. Side chains are listed from the residue outwards. Peptide text beside a SMILES is read from it. * marks the point of attachment. CH2CO(D-glucamine) = O=C(C*)NC[C@H](O)[C@@H](O)[C@H](O)[C@H](O)CO; NH(1-deoxy-D-glucityl) = OC[C@@H](O)[C@@H](O)[C@H](O)[C@@H](O)CN*; Trp(1-CH2COOH) = N[C@@H](Cc1cn(CC(=O)O)c2ccccc12)C(=O)O; CH2CON(CH2CH2)2NCH2COOH = O=C(O)CN1CCN(C(=O)C*)CC1; NMePhe(4-COOH) = CN[C@@H](Cc1ccc(C(=O)O)cc1)C(=O)O; Nle(6-morpholino) = N[C@@H](CCCCN1CCOCC1)C(=O)O; Phe(3-COOH) = N[C@@H](Cc1cccc(C(=O)O)c1)C(=O)O; Trp(7-aza) = N[C@@H](Cc1c[nH]c2ncccc12)C(=O)O; NH(CH2CH2O)8Me = COCCOCCOCCOCCOCCOCCOCCOCCN*; NMePhe(3-Cl) = CN[C@@H](Cc1cccc(Cl)c1)C(=O)O; Piperazinyl(4-CH2COOH) = O=C(O)CN1CCN(*)CC1; 3Pal(6-NH2) = Nc1ccc(C[C@H](N)C(=O)O)cn1; NMe3Pal = CN[C@@H](Cc1cccnc1)C(=O)O; NMeY = CN[C@@H](Cc1ccc(O)cc1)C(=O)O; Nva(3-Et) = CCC(CC)[C@H](N)C(=O)O; 4Pal = N[C@@H](Cc1ccncc1)C(=O)O; PEG4 = NCCOCCOCCOCCOCCC(=O)O; Carboxymethyl = O=C(O)C*; CO = O=C([*:1])[*:2]
Target: human transferrin receptor (hTfR) (Homo sapiens, UniProt P02786)
Sequence (P02786 whole entry): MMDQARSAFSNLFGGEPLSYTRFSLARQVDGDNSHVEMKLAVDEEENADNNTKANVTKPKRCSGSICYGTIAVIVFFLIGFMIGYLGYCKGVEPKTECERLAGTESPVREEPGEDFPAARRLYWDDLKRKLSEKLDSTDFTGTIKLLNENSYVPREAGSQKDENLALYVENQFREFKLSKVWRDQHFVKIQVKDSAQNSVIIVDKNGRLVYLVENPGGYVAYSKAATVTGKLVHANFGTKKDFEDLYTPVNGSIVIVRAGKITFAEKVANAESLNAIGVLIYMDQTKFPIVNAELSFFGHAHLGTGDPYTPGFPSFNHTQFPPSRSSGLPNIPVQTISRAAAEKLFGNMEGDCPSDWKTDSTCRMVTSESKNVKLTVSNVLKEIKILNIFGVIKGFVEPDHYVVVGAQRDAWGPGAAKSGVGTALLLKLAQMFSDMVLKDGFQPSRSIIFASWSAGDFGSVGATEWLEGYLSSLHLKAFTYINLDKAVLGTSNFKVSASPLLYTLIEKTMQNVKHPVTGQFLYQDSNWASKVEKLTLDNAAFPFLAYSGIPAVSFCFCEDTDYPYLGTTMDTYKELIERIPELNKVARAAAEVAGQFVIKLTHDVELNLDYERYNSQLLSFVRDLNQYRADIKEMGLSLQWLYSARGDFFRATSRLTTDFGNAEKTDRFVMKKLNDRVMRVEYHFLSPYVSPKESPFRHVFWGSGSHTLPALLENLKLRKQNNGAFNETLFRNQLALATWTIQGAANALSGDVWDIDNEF
Assay: SPR measurement under pH 7.4 conditions (Biacore T200, CM3 chip, hTfR captured by His Tag antibody)
Assay type: binding
Description: Molecular interactions between the synthesized peptides and the transferrin receptor (hTfR) were evaluated by surface plasmon resonance (SPR) using the following method. The specific assay procedure is described below.
An CM3 sensor chip (Cytiva) was inserted into BiacoreT200 (Cytiva), then a priming operation was performed three times by using a running buffer: HBS-P+, pH7.4 (Cytiva), and an equilibrium state was created at a flow rate of […]. Ligand immobilization was performed at a flow rate of 10 µL/min. After mixing 50 µL each of 60 mM EDC solution (Cytiva) and 650 mM NHS solution (Cytiva), the mixture was reacted at a flow rate of 10 µL/min for 420 seconds. 150 µL of […] THE His Tag Antibody, mAb, Mouse (GenScript) was prepared by diluting with 10 mM acetic acid solution (pH 5.0), and reacted at a flow rate of 10 µL/ min for 420 seconds. Then, THE His Tag Antibody, mAb, Mouse (GenScript) was immobilized as a capture molecule on the CM3 sensor chip. After immobilization, capping was performed by reacting with 1.0 M ethanolamine solution (Cytiva) at a flow rate of 10 µL/min for 420 seconds. 300 nM hTfR was captured at a flow rate of 10 µL/min, a peptide solution prepared at 10 mM in DMSO was diluted with running buffer to achieve a final concentration of 10 µM, and peptide solutions at 250 nM, 125 nM, 62.5 nM, 25 nM, and 12.5 nM were prepared. . The peptide samples were reacted at a flow late of 30 µL/min for 120 seconds, followed by dissociation for 600 seconds. The kinetics of the peptide against hTfR was obtained by SPR measurement for the above samples.
The kinetic evaluation model was single-cycle kinetics, and curve fitting was performed using Biacore T200 Evaluation Software Version 3.0 (Cytiva). The binding of the peptide to hTfR was evaluated by performing curve fitting on the obtained sensorgram by the least squares method and obtaining the kon value, the koff value, and the KD value.

[1] = SPR, pH 7.4, Table 2-1-2, read-out: hTfR SPR pH7.4 KD(n M)

Row | Kd [1] [nM] | SMILES | further results
1 | 6.55 | CC[C@H](C)[C@@H]1NC(=O)[C@H](Cc2ccc(OCC(=O)N3CCN(CC(=O)O)CC3)cc2)NC(=O)[C@H](Cc2ccc(N)nc2)NC(=O)[C@H](CC(N)=O)NC(=O)[C@H](Cc2c[nH]c3ncccc23)NC(=O)[C@H](C(C)C)NC(=O)[C@H](Cc2cccc(Cl)c2)N(C)C(=O)[C@H](C(C)C)NC(=O)[C@H](C)NC(=O)CSC[C@@H](C(=O)NCCOCCOCCOCCOCCC(N)=O)NC(=O)[C@H](Cc2ccc(O)cc2)N(C)C(=O)[C@H](Cc2cccc(C(=O)O)c2)NC(=O)[C@H](CCCNC(=N)N)NC(=O)[C@H](CCC(=O)NCCOCCOCCOCCOCCOCCOCCOCCOC)NC(=O)[C@H]([C@@H](C)CC)NC1=O [compound 159] ({CH2CO}-AV[NMePhe(3-Cl)]V[Trp(7-aza)]N[3Pal(6-NH2)]Y(CH2CON(CH2CH2)2NCH2COOH)IIE(NH(CH2CH2O)8Me)R[Phe(3-COOH)][NMeY]C[PEG4]-NH2; thioether N-15) | 
2 | 20.2 | CC[C@H](C)[C@@H]1NC(=O)[C@H](Cc2ccc(OCC(=O)N3CCN(CC(=O)O)CC3)cc2)NC(=O)[C@H](Cc2ccc(N)nc2)NC(=O)[C@H](CC(N)=O)NC(=O)[C@H](Cc2cn(CC(=O)O)c3ccccc23)NC(=O)[C@H](C(C)C)NC(=O)[C@H](Cc2cccc(Cl)c2)N(C)C(=O)[C@H](C(C)C)NC(=O)[C@H](C)NC(=O)CSC[C@@H](C(=O)NCCOCCOCCOCCOCCC(N)=O)NC(=O)[C@H](Cc2ccc(O)cc2)N(C)C(=O)[C@H](Cc2ccncc2)NC(=O)[C@H](CCCNC(=N)N)NC(=O)[C@H](CCCCNC(=O)N2CCN(CC(=O)O)CC2)NC(=O)[C@H]([C@@H](C)CC)NC1=O [compound 158] ({CH2CO}-AV[NMePhe(3-Cl)]V[Trp(1-CH2COOH)]N[3Pal(6-NH2)]Y(CH2CON(CH2CH2)2NCH2COOH)IIK([CO-Piperazinyl(4-CH2COOH)])R[4Pal][NMeY]C[PEG4]-NH2; thioether N-15) | 
3 |  | CCC(CC)[C@@H]1NC(=O)[C@H](Cc2ccc(OCC(=O)O)cc2)NC(=O)[C@H](Cc2ccc(O)cc2)NC(=O)[C@H](CC(N)=O)NC(=O)[C@H](Cc2cn(CC(=O)O)c3ccccc23)NC(=O)[C@H](C(C)C)NC(=O)[C@H](Cc2cccc(Cl)c2)N(C)C(=O)[C@H](C(C)C)NC(=O)[C@H](C)NC(=O)CSC[C@@H](C(=O)NCCOCCOCCOCCOCCC(N)=O)NC(=O)[C@H](Cc2cccnc2)N(C)C(=O)[C@H](Cc2cccc(C(=O)O)c2)NC(=O)[C@H](CCCNC(=N)N)NC(=O)[C@H](CCC(N)=O)NC(=O)[C@H]([C@@H](C)CC)NC1=O [compound 97] ({CH2CO}-AV[NMePhe(3-Cl)]V[Trp(1-CH2COOH)]NYY(Carboxymethyl)[Nva(3-Et)]IQR[Phe(3-COOH)][NMe3Pal]C[PEG4]-NH2; thioether N-15) | Kd (SPR, pH 7.4, peptide with the linker named in the table, read-out: hTfR SPR pH7.4 KD): 22.6 nM
4 | 44.3 | CC[C@H](C)[C@@H]1NC(=O)[C@H](Cc2ccc(OCC(=O)N3CCN(CC(=O)O)CC3)cc2)NC(=O)[C@H](Cc2ccc(N)nc2)NC(=O)[C@H](CC(N)=O)NC(=O)[C@H](Cc2c[nH]c3ncccc23)NC(=O)[C@H](C(C)C)NC(=O)[C@H](Cc2cccc(Cl)c2)N(C)C(=O)[C@H](C(C)C)NC(=O)[C@H](C)NC(=O)CSC[C@@H](C(=O)NCCOCCOCCOCCOCCC(N)=O)NC(=O)[C@H](Cc2ccc(O)cc2)N(C)C(=O)[C@H](Cc2ccncc2)NC(=O)[C@H](CCCNC(=N)N)NC(=O)[C@H](CCC(=O)NCCOCCOCCOCCOCCOCCOCCOCCOC)NC(=O)[C@H]([C@@H](C)CC)NC1=O [compound 153] | 
5 | 12200 | CCC(CC)[C@@H]1NC(=O)[C@H](Cc2ccc(OCC(=O)O)cc2)NC(=O)[C@H](Cc2ccc(N)nc2)NC(=O)[C@H](CC(N)=O)NC(=O)[C@H](Cc2c[nH]c3ncccc23)NC(=O)[C@H](C(C)C)NC(=O)[C@H](Cc2cccc(Cl)c2)N(C)C(=O)[C@H](C(C)C)NC(=O)[C@H](C)NC(=O)CSC[C@@H](C(=O)NCCOCCOCCOCCOCCC(N)=O)NC(=O)[C@H](Cc2ccc(C(=O)O)cc2)N(C)C(=O)[C@H](Cc2cccc(C(=O)O)c2)NC(=O)[C@H](CCCNC(=N)N)NC(=O)[C@H](CCC(=O)NCCOCCOCCOCCOCCOCCOCCOCCOC)NC(=O)[C@H]([C@@H](C)CC)NC1=O [compound 161] ({CH2CO}-AV[NMePhe(3-Cl)]V[Trp(7-aza)]N[3Pal(6-NH2)]Y(Carboxymethyl)[Nva(3-Et)]IE(NH(CH2CH2O)8Me)R[Phe(3-COOH)][NMePhe(4-COOH)]C[PEG4]-NH2; thioether N-15) | 
6 |  | CC[C@H](C)[C@@H]1NC(=O)[C@H](Cc2ccc(OCC(=O)NC[C@H](O)[C@@H](O)[C@H](O)[C@H](O)CO)cc2)NC(=O)[C@H](Cc2ccc(N)nc2)NC(=O)[C@H](CC(N)=O)NC(=O)[C@H](Cc2c[nH]c3ncccc23)NC(=O)[C@H](C(C)C)NC(=O)[C@H](Cc2cccc(Cl)c2)N(C)C(=O)[C@H](C(C)C)NC(=O)[C@H](C)NC(=O)CSC[C@@H](C(=O)NCCOCCOCCOCCOCCC(N)=O)NC(=O)[C@H](Cc2ccc(O)cc2)N(C)C(=O)[C@H](Cc2ccncc2)NC(=O)[C@H](CCCCN2CCOCC2)NC(=O)[C@H](CCC(=O)NC[C@H](O)[C@@H](O)[C@H](O)[C@H](O)CO)NC(=O)[C@H]([C@@H](C)CC)NC1=O [compound 13] ({CH2CO}-AV[NMePhe(3-Cl)]V[Trp(7-aza)]N[3Pal(6-NH2)]Y(CH2CO(D-glucamine))IIE(NH(1-deoxy-D-glucityl))[Nle(6-morpholino)][4Pal][NMeY]C[PEG4]-NH2; thioether N-15) | Kd (pH 7.4, single-cycle kinetics, read-out: hTfR SPR pH7.4 KD): 11.4 nM
7 | 32.6 | CC[C@H](C)[C@@H]1NC(=O)[C@H](Cc2ccc(OCC(=O)N3CCN(CC(=O)O)CC3)cc2)NC(=O)[C@H](Cc2ccc(N)nc2)NC(=O)[C@H](CC(N)=O)NC(=O)[C@H](Cc2c[nH]c3ncccc23)NC(=O)[C@H](C(C)C)NC(=O)[C@H](Cc2cccc(Cl)c2)N(C)C(=O)[C@H](C(C)C)NC(=O)[C@H](C)NC(=O)CSC[C@@H](C(=O)NCCOCCOCCOCCOCCC(N)=O)NC(=O)[C@H](Cc2ccc(O)cc2)N(C)C(=O)[C@H](Cc2ccncc2)NC(=O)[C@H](CCCCN2CCOCC2)NC(=O)[C@H](CCC(=O)NCCOCCOCCOCCOCCOCCOCCOCCOC)NC(=O)[C@H]([C@@H](C)CC)NC1=O [compound 154] ({CH2CO}-AV[NMePhe(3-Cl)]V[Trp(7-aza)]N[3Pal(6-NH2)]Y(CH2CON(CH2CH2)2NCH2COOH)IIE(NH(CH2CH2O)8Me)[Nle(6-morpholino)][4Pal][NMeY]C[PEG4]-NH2; thioether N-15) | 
8 | 28.4 | CC[C@H](C)[C@@H]1NC(=O)[C@H](Cc2ccc(OCC(=O)N3CCN(CC(=O)O)CC3)cc2)NC(=O)[C@H](Cc2ccc(N)nc2)NC(=O)[C@H](CC(N)=O)NC(=O)[C@H](Cc2cn(CC(=O)O)c3ccccc23)NC(=O)[C@H](C(C)C)NC(=O)[C@H](Cc2cccc(Cl)c2)N(C)C(=O)[C@H](C(C)C)NC(=O)[C@H](C)NC(=O)CSC[C@@H](C(=O)NCCOCCOCCOCCOCCC(N)=O)NC(=O)[C@H](Cc2ccc(O)cc2)N(C)C(=O)[C@H](Cc2ccncc2)NC(=O)[C@H](CCCCN2CCOCC2)NC(=O)[C@H](CCC(=O)NCCOCCOCCOCCOCCOCCOCCOCCOC)NC(=O)[C@H]([C@@H](C)CC)NC1=O [compound 155] ({CH2CO}-AV[NMePhe(3-Cl)]V[Trp(1-CH2COOH)]N[3Pal(6-NH2)]Y(CH2CON(CH2CH2)2NCH2COOH)IIE(NH(CH2CH2O)8Me)[Nle(6-morpholino)][4Pal][NMeY]C[PEG4]-NH2; thioether N-15) | 

— patent EP4667483A1, “HUMAN TRANSFERRIN RECEPTOR-BINDING PEPTIDE” (JCR Pharmaceuticals Co., Ltd., priority 2023, dated 2024)
